In patent EP1228063B1, “SUBSTITUTED PYRIDINES AND PYRIDAZINES WITH ANGIOGENESIS INHIBITING ACTIVITY” (BAYER CORPORATION, priority 1999, dated 2001):

Assays:
[1] = tested on: SK-MEL2 human tumor cells that were transfected with a plasmid containing the murine VEGF gene; assay: Matrigel Angiogenesis Model (hemoglobin content of Matrigel pellets); format: in vivo, Mice; conditions: vs. vehicle control animals, 12 days post-implantation
Method: Preparation of Matrigel Plugs and in vivo Phase: Matrigel® (Collaborative Biomedical Products, Bedford, MA) is a basement membrane extract from a murine tumor composed primarily of laminin, collagen IV and heparan sulfate proteoglycan. It is provided as a sterile liquid at 4° C, but rapidly forms a solid gel at 37° C.
Liquid Matrigel at 4° C was mixed with SK-MEL2 human tumor cells that were transfected with a plasmid containing the murine VEGF gene with a selectable marker. Tumor cells were grown in vitro under selection and cells were mixed with cold liquid Matrigel at a ratio of 2 X 10^6 per 0.5 ml. […]
Optical densities were determined spectrophotometrically at 600 nm in a 96-well plate reader, SpectraMax 250 Microplate Spectrophotometer System (Molecular Devices, Sunnyvale, CA). Background Lysis Buffer readings were subtracted from all wells.
Total sample hemoglobin content was calculated according to the following equation: Total Hemoglobin = (Sample Lysate Volume) × (Hemoglobin Concentration) [formula]
The average Total Hemoglobin of Matrigel samples without cells was subtracted from each Total Hemoglobin Matrigel sample with cells. Percent inhibition was calculated according to the following equation: % Inhibition = ((Average Total Hemoglobin Drug-Treated Tumor Lysates) × 100)/((Average Total Hemoglobin Non-Treated Tumor Lysates)) [formula] […]

[2] = target: T1, NIH3T3 cells expressing the full length KDR receptor (Homo sapiens, UniProt P35968); assay: Cell mechanistic assay - Inhibition of 3T3 KDR phosphorylation; format: cell-based; conditions: VEGF (30 ng / ml) stimulated KDR phosphorylation in NIH3T3 cells, 30 minutes preincubation
T1 construct: NIH3T3 cells expressing the full length KDR receptor; expressed in transfected cells; host or cells: NIH3T3 cells (G418 selection)
Method: NIH3T3 cells expressing the full length KDR receptor were grown in DMEM (Life Technologies, Inc., Grand Island, NY) supplemented with 10% newborn calf serum, low glucose, 25 mM /L sodium pyruvate, pyridoxine hydrochloride and 0.2 mg/ ml of G418 (Life Technologies Inc., Grand Island, NY). The cells were maintained in collagen I-coated T75 flasks (Becton Dickinson Labware, Bedford, MA) in a humidified 5% CO2 atmosphere at 37°C.
Fifteen thousand cells were plated into each well of a collagen 1-coated 96-well plate in the DMEM growth medium. Six hours later, the cells were washed and the medium was replaced with DMEM without serum. After overnight culture to quiesce the cells, the medium was replaced by Dulbecco's phosphate-buffered saline (Life Technologies Inc., Grand Island, NY) with 0.1 % bovine albumin (Sigma Chemical Co., St Louis, MO). After adding various concentrations (0-300 nM) of test compounds to the cells in 1% final concentration of DMSO, the cells were incubated at room temperature for 30 minutes. The cells were then treated with VEGF (30 ng / ml) for 10 minutes at room temperature. Following VEGF stimulation, the buffer was removed and the cells were lysed by addition of 150 µl of extraction buffer (50 mM Tris, pH 7.8, supplemented with 10% glycerol, 50 mM BGP, 2 mM EDTA, 10 mM NaF, 0.5 mM NaVO4, and 0.3% TX-100) at 4°C for 30 minutes.
To assess receptor phosphorylation, 100 microliters of each cell lysate was added to the wells of an ELISA plate precoated with 300 ng of antibody C20 (Santa Cruz Biotechnology, Inc., Santa Cruz , CA). Following a 60-minute incubation, the plate was washed and bound KDR was probed for phosphotyrosine using an anti-phosphotyrosine mAb clone 4G10 (Upstate Biotechnology, Lake Placid, NY). The plate was washed and wells were incubated with anti-mouse IgG/HRP conjugate (Amersham International plc, Buckinghamshire, England) for 60 minutes. Wells were washed and phosphotyrosine was quantitated by addition of 100 µl per well of 3,3',5,5' tetramethylbenzidine (Kirkegaard and Perry, TMB Microwell 1 Component peroxidase substrate) solution. Color development was arrested by the addition of 100 µl 1% HCl based stop solution (Kirkegaard and Perry, TMB 1 Component Stop Solution).
Optical densities (OD) were determined spectrophotometrically at 450 nm in a 96-well plate reader (SpectraMax 250, Molecular Devices). Background (no VEGF added) OD values were subtracted from all ODs and percent inhibition was calculated according to the equation: % Inhibition = ((OD(VEGF control)-OD(with test compound)) × 100)/(OD(VEGF control)-OD(no VEGF added)) [formula]
IC50s were determined on some of the exemplary materials with a least squares analysis program using compound concentration versus percent inhibition. Compounds that have IC50 ≤ 20 nM in this assay include those of Examples 2, 6, 10, 11, 14, 23, 96, 101, 102, 103, 104, 105. Compounds that have IC50 values between 20 nM and 50 nM include those of examples 1, 4, 8, 9, 12, 13, 17, 24, 93, 98. Compounds that have IC50 values between 50 nM and 400 nM include those of examples 97, 99, and 100.

T1 sequence (P35968 20-1356): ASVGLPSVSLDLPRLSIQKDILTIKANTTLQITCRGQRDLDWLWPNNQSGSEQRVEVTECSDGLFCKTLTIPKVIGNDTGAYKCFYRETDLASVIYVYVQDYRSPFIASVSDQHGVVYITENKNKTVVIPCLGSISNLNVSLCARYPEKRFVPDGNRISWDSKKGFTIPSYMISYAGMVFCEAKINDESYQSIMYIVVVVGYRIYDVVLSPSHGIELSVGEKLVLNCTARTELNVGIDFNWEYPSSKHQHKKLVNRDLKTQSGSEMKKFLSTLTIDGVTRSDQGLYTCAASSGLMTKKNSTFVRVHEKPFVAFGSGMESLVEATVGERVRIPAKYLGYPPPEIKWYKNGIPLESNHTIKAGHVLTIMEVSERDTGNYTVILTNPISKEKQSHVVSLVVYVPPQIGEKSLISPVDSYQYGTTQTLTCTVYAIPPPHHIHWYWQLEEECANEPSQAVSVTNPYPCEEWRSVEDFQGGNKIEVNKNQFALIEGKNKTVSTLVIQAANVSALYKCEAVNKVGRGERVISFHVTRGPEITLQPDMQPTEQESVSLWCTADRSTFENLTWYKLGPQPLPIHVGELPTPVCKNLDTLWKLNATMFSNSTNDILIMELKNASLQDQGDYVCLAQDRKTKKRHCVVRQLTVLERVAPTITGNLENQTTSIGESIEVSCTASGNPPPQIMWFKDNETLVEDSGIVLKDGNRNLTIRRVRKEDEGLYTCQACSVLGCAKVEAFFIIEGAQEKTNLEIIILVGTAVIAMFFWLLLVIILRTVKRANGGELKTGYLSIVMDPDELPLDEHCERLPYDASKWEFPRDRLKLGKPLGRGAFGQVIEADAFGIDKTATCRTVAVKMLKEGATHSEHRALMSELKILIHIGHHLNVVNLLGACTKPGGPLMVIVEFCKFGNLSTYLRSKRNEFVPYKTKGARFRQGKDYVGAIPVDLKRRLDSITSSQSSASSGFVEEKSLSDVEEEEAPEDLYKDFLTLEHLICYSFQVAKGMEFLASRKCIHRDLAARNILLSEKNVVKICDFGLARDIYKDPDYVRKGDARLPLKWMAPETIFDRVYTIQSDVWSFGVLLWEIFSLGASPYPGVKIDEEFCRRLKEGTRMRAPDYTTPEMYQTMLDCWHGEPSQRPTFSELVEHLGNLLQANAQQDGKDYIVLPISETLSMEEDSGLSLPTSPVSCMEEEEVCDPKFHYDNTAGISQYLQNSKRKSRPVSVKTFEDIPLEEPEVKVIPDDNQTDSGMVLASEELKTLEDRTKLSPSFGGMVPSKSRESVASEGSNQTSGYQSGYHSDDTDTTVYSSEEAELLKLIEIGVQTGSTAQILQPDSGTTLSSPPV

IC50 [2]: 20 to 50 nM
Structure (SMILES): Clc1ccc(Nc2nnc(OCc3ccncc3)c3sccc23)cc1 [Example 8, 4-(4-chlorophenylamino)-7-(4-pyridylmethoxy)thieno-[2,3-d]pyridazine]
inhibition of total hemoglobin content of the Matrigel samples ([1]; 100 mg/kg po sid): > 60%
inhibition of total hemoglobin content of the Matrigel samples ([1]; 300 mg/kg po sid): > 60%
